According to US20160199481A1 (priority 2013, published 2016):
Entries after “also recorded” stand apart in the source; their conditions may differ.

Tests used:
Assay type in all cases: cell-based, influenza A
[1] = system: WT HA/G147R NA virus
[2] = system: G147R NA-only VLPs
[3] = system: WT HA/G147R NA virus; remark: listed apart in the source
[4] = system: PassMut HA/G147R NA virus
[5] = system: PassMut HA/G147R NA virus; remark: listed apart in the source

## oseltamivir
[1]
  neutralization of infectivity (percent infectivity remaining): partially neutralized by oseltamivir; also recorded: intermediate phenotype
[2]
  oseltamivir concentration down to which agglutination was inhibited: 0.12 nM
  reversal of agglutination by G147R VLPs: reversed the agglutination
[3]
  inhibition of agglutination by oseltamivir: uninhibited at all oseltamivir concentrations tested
[4]
  neutralization of infectivity (percent infectivity remaining): nearly completely neutralized by oseltamivir; also recorded: strongly neutralized at low nanomolar oseltamivir concentrations
[5]
  oseltamivir concentration down to which agglutination was inhibited: 1.5 nM
